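Each compound was tested at five concentrations against cells in 96-well plates for 48 hours. Abbreviation: GI50, concentration required for 50% inhibition of growth.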 Activity calls are given as the source filed them. Rule as the data show it: active = GI50 up to about 1.1 µM and inactive = higher.
How the values were obtained:
Test in all cases: DTP human tumour cell line panel, 48 h
[1] = tested on: 786-0
[2] = tested on: A498
[3] = tested on: A549
[4] = tested on: ACHN
[5] = tested on: BT-549
[6] = tested on: CAKI-1
[7] = tested on: CCRF-CEM
[8] = tested on: DU-145
[9] = tested on: EKVX
[10] = tested on: HCC 2998
[11] = tested on: HCT-116
[12] = tested on: HCT-15
[13] = tested on: HL-60
[14] = tested on: HOP-62
[15] = tested on: HOP-92
[16] = tested on: Hs-578T
[17] = tested on: IGROV-1
[18] = tested on: K562
[19] = tested on: KM12
[20] = tested on: LOX IMVI
[21] = tested on: M14
[22] = tested on: MCF7
[23] = tested on: MDA-MB-231
[24] = tested on: MDA-MB-435
[25] = tested on: MDA-N
[26] = tested on: MOLT-4
[27] = tested on: Malme-3M
[28] = tested on: NCI-H226
[29] = tested on: NCI-H23
[30] = tested on: NCI-H460
[31] = tested on: NCI-H522
[32] = tested on: NCI/ADR-RES
[33] = tested on: OVCAR-3
[34] = tested on: OVCAR-4
[35] = tested on: OVCAR-5
[36] = tested on: OVCAR-8
[37] = tested on: PC-3
[38] = tested on: RPMI-8226
[39] = tested on: RXF 393
[40] = tested on: SF-268
[41] = tested on: SF-295
[42] = tested on: SF-539
[43] = tested on: SK-MEL-28
[44] = tested on: SK-MEL-2
[45] = tested on: SK-MEL-5
[46] = tested on: SK-OV-3
[47] = tested on: SN12C
[48] = tested on: SNB-19
[49] = tested on: SR
[50] = tested on: SW-620
[51] = tested on: T47D
[52] = tested on: TK-10
[53] = tested on: U-251
[54] = tested on: UACC-257
[55] = tested on: UACC-62
[56] = tested on: UO-31
[57] = tested on: COLO 205
[58] = tested on: HT-29
[59] = tested on: SNB-75

## CCOC(=O)c1sc2nc(SC)nc3c2c1NCN3c1ccc2c(c1)OCCCO2
[1]
  GI50: 6.31 µM (inactive)
[2]
  GI50: 7.98 µM (inactive)
[3]
  GI50: 9.48 µM (inactive)
[4]
  GI50: 32.1 µM (inactive)
[5]
  GI50: 51.2 µM (inactive)
[6]
  GI50: > 100 µM (inactive)
[7]
  GI50: > 100 µM (inactive)
[8]
  GI50: > 100 µM (inactive)
[9]
  GI50: > 100 µM (inactive)
[10]
  GI50: 26.3 µM (inactive)
[11]
  GI50: 5.02 µM (inactive)
[12]
  GI50: > 100 µM
[13]
  GI50: > 100 µM (inactive)
[14]
  GI50: 27.9 µM (inactive)
[15]
  GI50: 79.3 µM (inactive)
[16]
  GI50: 2.57 µM (inactive)
[17]
  GI50: > 100 µM (inactive)
[18]
  GI50: > 100 µM (inactive)
[19]
  GI50: 4.18 µM (inactive)
[20]
  GI50: > 100 µM (inactive)
[21]
  GI50: 38.2 µM (inactive)
[22]
  GI50: > 100 µM (inactive)
[23]
  GI50: 24.3 µM (inactive)
[24]
  GI50: > 100 µM (inactive)
[25]
  GI50: > 100 µM (inactive)
[26]
  GI50: > 100 µM (inactive)
[27]
  GI50: > 100 µM (inactive)
[28]
  GI50: 3.53 µM (inactive)
[29]
  GI50: 70.8 µM (inactive)
[30]
  GI50: 25.7 µM (inactive)
[31]
  GI50: > 100 µM (inactive)
[32]
  GI50: 22.1 µM (inactive)
[33]
  GI50: 18.6 µM (inactive)
[34]
  GI50: > 100 µM (inactive)
[35]
  GI50: > 100 µM (inactive)
[36]
  GI50: 7.46 µM (inactive)
[37]
  GI50: > 100 µM (inactive)
[38]
  GI50: > 100 µM (inactive)
[39]
  GI50: 11.7 µM (inactive)
[40]
  GI50: 13.3 µM (inactive)
[41]
  GI50: 1.67 µM (inactive)
[42]
  GI50: 13.9 µM (inactive)
[43]
  GI50: 56.1 µM (inactive)
[44]
  GI50: > 100 µM (inactive)
[45]
  GI50: 12.2 µM (inactive)
[46]
  GI50: 15.7 µM (inactive)
[47]
  GI50: 49.7 µM (inactive)
[48]
  GI50: 8.09 µM (inactive)
[49]
  GI50: > 100 µM (inactive)
[50]
  GI50: 8.71 µM (inactive)
[51]
  GI50: 68.1 µM (inactive)
[52]
  GI50: 53.6 µM (inactive)
[53]
  GI50: 7.57 µM (inactive)
[54]
  GI50: > 100 µM (inactive)
[55]
  GI50: > 100 µM (inactive)
[56]
  GI50: 37.9 µM (inactive)

## O=C(O)Cc1cc(F)ccc1C(=O)O
[1]
  GI50: > 100 µM (inactive)
[2]
  GI50: > 100 µM (inactive)
[3]
  GI50: > 100 µM (inactive)
[4]
  GI50: > 100 µM (inactive)
[5]
  GI50: > 100 µM (inactive)
[6]
  GI50: 31 µM (inactive)
[7]
  GI50: > 100 µM (inactive)
[57]
  GI50: > 100 µM (inactive)
[8]
  GI50: > 100 µM (inactive)
[9]
  GI50: > 100 µM (inactive)
[10]
  GI50: > 100 µM (inactive)
[11]
  GI50: > 100 µM (inactive)
[12]
  GI50: 73.5 µM
[13]
  GI50: > 100 µM (inactive)
[14]
  GI50: > 100 µM (inactive)
[15]
  GI50: > 100 µM (inactive)
[58]
  GI50: > 100 µM (inactive)
[16]
  GI50: > 100 µM (inactive)
[17]
  GI50: 23.6 µM (inactive)
[18]
  GI50: > 100 µM (inactive)
[19]
  GI50: > 100 µM (inactive)
[20]
  GI50: > 100 µM (inactive)
[21]
  GI50: > 100 µM (inactive)
[22]
  GI50: > 100 µM (inactive)
[23]
  GI50: > 100 µM (inactive)
[24]
  GI50: > 100 µM (inactive)
[25]
  GI50: > 100 µM (inactive)
[26]
  GI50: > 100 µM (inactive)
[29]
  GI50: > 100 µM (inactive)
[30]
  GI50: > 100 µM (inactive)
[31]
  GI50: 92 µM (inactive)
[32]
  GI50: > 100 µM (inactive)
[33]
  GI50: > 100 µM (inactive)
[35]
  GI50: > 100 µM (inactive)
[36]
  GI50: > 100 µM (inactive)
[37]
  GI50: > 100 µM (inactive)
[38]
  GI50: > 100 µM (inactive)
[39]
  GI50: 58.5 µM (inactive)
[40]
  GI50: > 100 µM (inactive)
[41]
  GI50: > 100 µM (inactive)
[42]
  GI50: > 100 µM (inactive)
[43]
  GI50: 60.3 µM (inactive)
[44]
  GI50: > 100 µM (inactive)
[45]
  GI50: > 100 µM (inactive)
[46]
  GI50: > 100 µM (inactive)
[47]
  GI50: > 100 µM (inactive)
[48]
  GI50: > 100 µM (inactive)
[59]
  GI50: 80.4 µM (inactive)
[49]
  GI50: 77.1 µM (inactive)
[50]
  GI50: > 100 µM (inactive)
[51]
  GI50: > 100 µM (inactive)
[52]
  GI50: > 100 µM (inactive)
[53]
  GI50: > 100 µM (inactive)
[54]
  GI50: > 100 µM (inactive)
[55]
  GI50: > 100 µM (inactive)
[56]
  GI50: > 100 µM (inactive)

## COC(=O)c1scc(N)c1-n1ccc(=O)[nH]c1=O
[1]
  GI50: > 100 µM (inactive)
[2]
  GI50: > 100 µM (inactive)
[3]
  GI50: > 100 µM (inactive)
[4]
  GI50: > 100 µM (inactive)
[5]
  GI50: > 100 µM (inactive)
[6]
  GI50: > 100 µM (inactive)
[7]
  GI50: > 100 µM (inactive)
[57]
  GI50: > 100 µM (inactive)
[8]
  GI50: > 100 µM (inactive)
[9]
  GI50: > 100 µM (inactive)
[10]
  GI50: > 100 µM (inactive)
[11]
  GI50: > 100 µM (inactive)
[12]
  GI50: > 100 µM
[13]
  GI50: > 100 µM (inactive)
[15]
  GI50: > 100 µM (inactive)
[58]
  GI50: > 100 µM (inactive)
[16]
  GI50: > 100 µM (inactive)
[17]
  GI50: > 100 µM (inactive)
[18]
  GI50: > 100 µM (inactive)
[19]
  GI50: > 100 µM (inactive)
[20]
  GI50: > 100 µM (inactive)
[21]
  GI50: > 100 µM (inactive)
[22]
  GI50: > 100 µM (inactive)
[23]
  GI50: > 100 µM (inactive)
[24]
  GI50: > 100 µM (inactive)
[25]
  GI50: > 100 µM (inactive)
[26]
  GI50: > 100 µM (inactive)
[27]
  GI50: > 100 µM (inactive)
[28]
  GI50: > 100 µM (inactive)
[29]
  GI50: > 100 µM (inactive)
[30]
  GI50: > 100 µM (inactive)
[31]
  GI50: > 100 µM (inactive)
[32]
  GI50: > 100 µM (inactive)
[34]
  GI50: > 100 µM (inactive)
[35]
  GI50: > 100 µM (inactive)
[36]
  GI50: > 100 µM (inactive)
[37]
  GI50: > 100 µM (inactive)
[38]
  GI50: > 100 µM (inactive)
[39]
  GI50: > 100 µM (inactive)
[40]
  GI50: > 100 µM (inactive)
[42]
  GI50: > 100 µM (inactive)
[43]
  GI50: > 100 µM (inactive)
[44]
  GI50: > 100 µM (inactive)
[45]
  GI50: > 100 µM (inactive)
[47]
  GI50: > 100 µM (inactive)
[48]
  GI50: > 100 µM (inactive)
[59]
  GI50: > 100 µM (inactive)
[49]
  GI50: > 100 µM (inactive)
[50]
  GI50: > 100 µM (inactive)
[51]
  GI50: > 100 µM (inactive)
[52]
  GI50: > 100 µM (inactive)
[53]
  GI50: > 100 µM (inactive)
[54]
  GI50: > 100 µM (inactive)
[55]
  GI50: > 100 µM (inactive)
[56]
  GI50: > 100 µM (inactive)
